Laboratory results: patent publication US10385031B2, “Substituted piperazines as selective HDAC1,2 inhibitors” (Regenacy Pharmaceuticals, LLC, priority 2016, dated 2019)

Key:
hERG = hERG (Homo sapiens (Human), UniProt Q12809); experiment: hERG inhibition, whole-cell patch clamp; type: cell-based; settings: HEK293 cells stably transfected with hERG
Protocol: For hERG inhibition assays, the cells used were HEK293 cells stably transfected with hERG (cell line obtained from Cytocentrics Inc. 3463 Magic Drive San Antonio, Tex. 78229). Composition of External Solution: NaCl, 137 mM; KCl, 4 mM; MgCl2, 1.0 mM; CaCl2, 1.8 mM; HEPES 10 mM; Dextrose 11 mM; Adjusted to a pH of 7.4 with NaOH. Composition of Internal Solution: KCl, 130.0 mM; MgCl2, 1.0 mM; HEPES, 5.0 mM; EGTA, 5.0 mM; NaCl 7.0 mM. Adjusted to a pH of 7.2 using KOH. Test Concentrations: 0.1, 1, 10, 100 μM. Vehicle: DMSO. Experiments were performed at 34+/−1° C. Current was recorded using the whole-cell patch clamp technique on the Cytopatch automated platform. hERG current was elicited with the following voltage protocol: hERG current amplitude was measured as the peak current at −50 mV (tail current). […] Each cell served as its own control. Data are presented as the IC50 calculated by non-linear regression analysis.

[1] = Rat pharmacokinetics, cassette dosing (IV and PO); type: in vivo; settings: male SD rats; for bioavailability / IV clearance / AUC / Cmax / half-life: rat; for bioavailability: 5 mg/kg; for half-life: read-out: PO T½ (converted)
Protocol: Male SD rats were fasted overnight. Compounds of the invention were dissolved in dimethyl acetamide at 10 times the final concentration, then Solutol HS 15 (BASF) was added to a final concentration of 10%. Finally 80% saline was added and vortexed to achieve a clear solution. For the IV dosing three animals were injected via the foot dorsal vein with 1 mg/kg compound. For the PO dosing 5 mg/kg of compound was delivered by oral gavage. Blood was collected via the tail vein into K2EDTA tubes at 5 minutes, 15 minutes, 30 minutes, 1 hour, 2 hours, 4 hours, 8 hours and 24 hours after dosing. The blood was centrifuged at 2000 g for 5 minutes at 4° C. to obtain plasma. The plasma was extracted with acetonitrile and the level of compound was analyzed by LC/MS/MS. The level of compound in plasma was calculated from a standard curve in rat plasma. The IV clearance (L/h/kg) and area under the curve (h*ng/mL) were calculated using WinNonLin software. The dose adjusted area under the curve for the IV and oral dosing were used to calculate the oral bioavailability.
Pharmacokinetic properties were assessed in a rat cassette dosing experiment. The IV clearance (IV Clr.) is in units of L/hr/kg. The oral maximum plasma concentration (PO Cmax) is in units of ng/ml. The oral plasma half-life (PO T½) is in units of hours. The oral area under the curve (PO AUC) is in units of hours*ng/ml. The fraction absorbed by the oral route (F %) is a percentage of the oral area under the curve to the IV area under the curve, dose adjusted.

[2] = system: CYP1A2, CYP2C9, CYP2C19, CYP3A4, CYP2D6; experiment: Cyp inhibition in human liver microsomes (all isozymes); type: in vitro ADME
Protocol: For Cyp inhibition, human liver microsomes from BD Gentest were incubated with Compound 028 or Compound 032 (10, 3.33, 1.11, 0.37, 0.12, 0.04, 0.01 μM) and substrate (CYP1A2: Phenacetin at 30 μM; CYP2C9: Diclofenac at 10 μM; CYP2C19: S-Mephenytoin at 35 μM; CYP3A4: Midazolam at 5 μM and Testosterone at 80 μM; CYP2D6: Bufuralol at 10 μM) for the following incubation times: CYP1A2, 2C9, 2D6: 10 minutes, 37° C.; CYP2C19: 45 minutes, 37° C.; CYP3A4: 5 minutes, 37° C. Substrate conversion was measured by liquid chromatography/mass spectrometry/mass spectrometry (LC/MS/MS). Inhibition was calculated by curve fitting in Graph Pad Prism.

CYP3A4 = CYP3A4 (Homo sapiens (Human), UniProt P08684); experiment: Cyp inhibition in human liver microsomes (3A4/midazolam); type: in vitro ADME
Chain of CYP3A4 (P08684 whole entry): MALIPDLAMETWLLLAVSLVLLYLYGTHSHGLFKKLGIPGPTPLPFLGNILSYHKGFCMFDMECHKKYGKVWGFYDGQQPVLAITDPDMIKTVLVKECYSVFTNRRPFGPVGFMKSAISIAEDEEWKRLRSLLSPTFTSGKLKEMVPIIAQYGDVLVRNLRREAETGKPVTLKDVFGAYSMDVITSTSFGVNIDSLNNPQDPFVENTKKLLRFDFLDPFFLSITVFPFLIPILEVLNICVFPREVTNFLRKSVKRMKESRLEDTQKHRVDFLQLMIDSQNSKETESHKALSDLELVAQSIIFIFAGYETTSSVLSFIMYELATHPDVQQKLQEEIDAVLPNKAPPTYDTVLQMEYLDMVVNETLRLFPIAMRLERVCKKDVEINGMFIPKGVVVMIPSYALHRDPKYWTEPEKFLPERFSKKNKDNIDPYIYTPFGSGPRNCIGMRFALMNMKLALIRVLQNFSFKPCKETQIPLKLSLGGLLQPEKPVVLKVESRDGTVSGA
Protocol: CYP2C9: Diclofenac at 10 μM; CYP2C19: S-Mephenytoin at 35 μM; CYP3A4: Midazolam at 5 μM and Testosterone at 80 μM; CYP2D6: Bufuralol at 10 μM) for the following incubation times: CYP1A2, 2C9, 2D6: 10 minutes, 37° C.; CYP2C19: 45 minutes, 37° C.; CYP3A4: 5 minutes, 37° C. Substrate conversion was measured by liquid chromatography/mass spectrometry/mass spectrometry (LC/MS/MS). Inhibition was calculated by curve fitting in Graph Pad Prism.

HDAC1 = HDAC1 (Homo sapiens (Human), UniProt Q13547); experiment: HDAC enzyme assay HDAC1; type: biochemical
Chain of HDAC1 (Q13547 whole entry): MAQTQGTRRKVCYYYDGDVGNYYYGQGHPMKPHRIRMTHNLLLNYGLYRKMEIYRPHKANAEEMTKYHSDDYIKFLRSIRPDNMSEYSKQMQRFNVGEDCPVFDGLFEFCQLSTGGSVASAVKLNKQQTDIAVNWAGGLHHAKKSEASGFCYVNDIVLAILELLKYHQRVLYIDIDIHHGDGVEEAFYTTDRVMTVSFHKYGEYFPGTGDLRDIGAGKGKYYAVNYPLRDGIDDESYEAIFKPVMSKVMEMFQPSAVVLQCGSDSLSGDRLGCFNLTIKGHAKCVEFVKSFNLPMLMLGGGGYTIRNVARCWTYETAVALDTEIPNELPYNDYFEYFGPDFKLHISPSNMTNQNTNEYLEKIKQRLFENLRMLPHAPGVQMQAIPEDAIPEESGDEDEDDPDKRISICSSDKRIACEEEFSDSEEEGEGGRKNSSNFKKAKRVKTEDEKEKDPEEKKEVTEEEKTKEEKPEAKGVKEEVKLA

HDAC2 = HDAC2 (Homo sapiens (Human), UniProt Q92769); experiment: HDAC enzyme assay HDAC2; type: biochemical
Chain of HDAC2 (Q92769 whole entry): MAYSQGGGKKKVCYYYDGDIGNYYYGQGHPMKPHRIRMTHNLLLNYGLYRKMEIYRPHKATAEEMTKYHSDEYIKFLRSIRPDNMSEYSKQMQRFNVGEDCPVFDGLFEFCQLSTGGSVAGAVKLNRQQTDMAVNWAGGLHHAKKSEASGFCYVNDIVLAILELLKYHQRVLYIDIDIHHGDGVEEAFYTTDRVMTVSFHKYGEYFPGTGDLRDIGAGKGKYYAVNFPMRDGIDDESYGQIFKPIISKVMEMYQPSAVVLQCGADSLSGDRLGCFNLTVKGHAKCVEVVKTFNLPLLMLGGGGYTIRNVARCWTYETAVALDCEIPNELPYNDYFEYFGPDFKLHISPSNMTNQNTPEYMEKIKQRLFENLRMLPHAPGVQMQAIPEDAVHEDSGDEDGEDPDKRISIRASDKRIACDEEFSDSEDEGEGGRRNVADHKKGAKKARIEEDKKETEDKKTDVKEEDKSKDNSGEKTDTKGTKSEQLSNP
Protocol: Compounds for testing were diluted in DMSO to 50 fold the final concentration and a ten-point three-fold dilution series was made. The compounds were diluted in assay buffer (50 mM HEPES, pH 7.4, 100 mM KCl, 0.001% Tween-20, 0.05% BSA, 20 μM TCEP) to 6-fold their final concentration. The HDAC enzymes (purchased from BPS Biosciences) were diluted to 1.5-fold their final concentration in assay buffer. The tripeptide substrate and trypsin at 0.05 μM final concentration were diluted in assay buffer at 6-fold their final concentration. The final enzyme concentrations used in these assays were 3.3 ng/ml (HDAC1), 0.2 ng/ml (HDAC2) and 0.08 ng/ml (HDAC3). The final substrate concentrations used were 16 μM (HDAC1), 10 μM (HDAC2) and 17 μM (HDAC3).
Five μl of compounds and 20 μl of enzyme were added to wells of a black, opaque 384 well plate in duplicate. Enzyme and compound were incubated together at room temperature for 10 minutes. Five μl of substrate was added to each well, the plate was shaken for 60 seconds and placed into a Victor 2 microtiter plate reader. The development of fluorescence was monitored for 60 min and the linear rate of the reaction was calculated. The IC50 was determined using Graph Pad Prism by a four parameter curve fit.

HDAC3 = HDAC3 (Homo sapiens (Human), UniProt O15379); experiment: HDAC enzyme assay HDAC3; type: biochemical
Chain of HDAC3 (O15379 whole entry): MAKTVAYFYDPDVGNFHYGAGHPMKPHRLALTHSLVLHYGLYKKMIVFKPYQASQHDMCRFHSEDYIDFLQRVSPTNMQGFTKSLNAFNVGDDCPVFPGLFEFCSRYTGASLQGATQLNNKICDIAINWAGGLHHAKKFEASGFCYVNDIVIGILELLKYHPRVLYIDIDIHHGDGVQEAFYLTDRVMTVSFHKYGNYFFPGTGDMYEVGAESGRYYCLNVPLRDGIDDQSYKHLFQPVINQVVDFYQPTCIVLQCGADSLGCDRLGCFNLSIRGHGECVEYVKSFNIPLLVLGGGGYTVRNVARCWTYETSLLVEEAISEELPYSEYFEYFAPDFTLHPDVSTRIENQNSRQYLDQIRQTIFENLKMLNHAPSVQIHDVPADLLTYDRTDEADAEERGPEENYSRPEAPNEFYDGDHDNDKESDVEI
Chain of HDAC3 (Q9Y618 395-489 partner): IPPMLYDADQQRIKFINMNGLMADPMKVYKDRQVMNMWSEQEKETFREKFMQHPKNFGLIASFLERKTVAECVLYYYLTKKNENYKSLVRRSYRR
Protocol: Compounds for testing were diluted in DMSO to 50 fold the final concentration and a ten-point three-fold dilution series was made. The compounds were diluted in assay buffer (50 mM HEPES, pH 7.4, 100 mM KCl, 0.001% Tween-20, 0.05% BSA, 20 μM TCEP) to 6-fold their final concentration. The HDAC enzymes (purchased from BPS Biosciences) were diluted to 1.5-fold their final concentration in assay buffer. The tripeptide substrate and trypsin at 0.05 μM final concentration were diluted in assay buffer at 6-fold their final concentration. The final enzyme concentrations used in these assays were 3.3 ng/ml (HDAC1), 0.2 ng/ml (HDAC2) and 0.08 ng/ml (HDAC3). The final substrate concentrations used were 16 μM (HDAC1), 10 μM (HDAC2) and 17 μM (HDAC3). Five μl of compounds and 20 μl of enzyme were added to wells of a black, opaque 384 well plate in duplicate. Enzyme and compound were incubated together at room temperature for 10 minutes. Five μl of substrate was added to each well, the plate was shaken for 60 seconds and placed into a Victor 2 microtiter plate reader. The development of fluorescence was monitored for 60 min and the linear rate of the reaction was calculated. The IC50 was determined using Graph Pad Prism by a four parameter curve fit. In Table 4 below, letter designations are defined as follows: […]

[3] = plasma, oral AUC to IV AUC, dose adjusted

Chain of hERG (Q12809 whole entry): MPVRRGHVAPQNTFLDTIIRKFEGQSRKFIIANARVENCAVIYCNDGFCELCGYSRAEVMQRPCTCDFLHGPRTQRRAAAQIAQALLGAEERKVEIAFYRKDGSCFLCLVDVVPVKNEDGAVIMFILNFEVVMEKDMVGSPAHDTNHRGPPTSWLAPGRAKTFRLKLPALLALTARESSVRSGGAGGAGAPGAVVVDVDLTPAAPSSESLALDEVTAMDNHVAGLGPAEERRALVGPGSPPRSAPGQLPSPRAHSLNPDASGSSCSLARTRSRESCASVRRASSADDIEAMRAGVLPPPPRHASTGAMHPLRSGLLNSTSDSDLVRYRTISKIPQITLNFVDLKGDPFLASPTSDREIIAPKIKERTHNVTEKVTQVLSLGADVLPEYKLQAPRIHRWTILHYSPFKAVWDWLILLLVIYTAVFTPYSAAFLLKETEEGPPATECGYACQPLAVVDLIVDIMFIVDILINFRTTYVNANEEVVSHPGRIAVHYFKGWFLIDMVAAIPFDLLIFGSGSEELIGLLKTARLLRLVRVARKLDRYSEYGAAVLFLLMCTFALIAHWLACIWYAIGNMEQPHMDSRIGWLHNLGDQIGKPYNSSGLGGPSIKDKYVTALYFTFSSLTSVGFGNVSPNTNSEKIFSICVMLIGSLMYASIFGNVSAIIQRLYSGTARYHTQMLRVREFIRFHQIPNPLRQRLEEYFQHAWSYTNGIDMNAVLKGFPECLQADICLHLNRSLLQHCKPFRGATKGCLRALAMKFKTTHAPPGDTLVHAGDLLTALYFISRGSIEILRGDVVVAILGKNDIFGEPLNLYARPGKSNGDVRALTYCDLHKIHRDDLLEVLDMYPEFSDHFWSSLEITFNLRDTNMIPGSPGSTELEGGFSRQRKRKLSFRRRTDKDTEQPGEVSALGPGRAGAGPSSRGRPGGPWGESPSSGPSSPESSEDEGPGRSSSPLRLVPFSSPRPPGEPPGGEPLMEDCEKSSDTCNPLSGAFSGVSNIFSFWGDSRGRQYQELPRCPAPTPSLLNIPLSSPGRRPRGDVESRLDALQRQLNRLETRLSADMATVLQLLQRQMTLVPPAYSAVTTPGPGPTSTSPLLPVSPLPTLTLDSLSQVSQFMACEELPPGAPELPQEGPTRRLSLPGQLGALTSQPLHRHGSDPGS

Row | Structure (SMILES) | IC50 (hERG; 34 °C, tail current) [µM] | bioavailability [1, 3] [%] | IV clearance ([1]; IV 1 mg/kg, plasma) [mL/min/kg] | AUC ([1]; PO 5 mg/kg, plasma) [ng·h/mL] | Cmax ([1]; PO 5 mg/kg, plasma) [ng/mL] | half-life ([1]; PO 5 mg/kg, plasma) [h] | IC50 [2] [µM] | also measured
1 | Nc1ccccc1NC(=O)c1ccc2nc(N3CCNCC3)ccc2c1 [Compound 001] | > 30 |  |  |  |  |  |  | 
2 | Nc1ccc(-c2ccco2)cc1NC(=O)c1ccc2nc(N3CCNCC3)ccc2c1 [Compound 003] | 7.6 | 77 | 3.17 | 19100 | 1910 | 5 | > 10 | 
3 | Nc1ccc(-c2ccccc2)cc1NC(=O)c1ccc(N2CCNCC2)nc1 [Compound 006] | 5.1 |  |  |  |  |  | > 10 | 
4 | Nc1ccc(-c2cccs2)cc1NC(=O)c1ccc(N2CCNCC2)nc1 [Compound 007] | 8.6 |  |  |  |  |  | > 10 | 
5 | Nc1ccccc1NC(=O)c1cc2ccc(N3CCNCC3)cc2cn1 [Compound 021] | 4.2 | 89.8 | 94.3 | 763 | 68 | 3.2 |  | 
6 | Nc1ccc(-c2ccccc2)cc1NC(=O)c1cc2ccc(N3CCNCC3)cc2cn1 [Compound 022] | 0.4 | 195 | 16.3 | 8180 | 517 | 13.5 | > 10 | 
7 | Nc1ccc(-c2ccoc2)cc1NC(=O)c1cnc2cc(N3CCNCC3)ccc2c1 [Compound 025] |  |  |  |  |  |  | > 10 | 
8 | Nc1ccc(-c2ccncc2)cc1NC(=O)c1cnc2cc(N3CCNCC3)ccc2c1 [Compound 026] | > 100 |  |  |  |  |  |  | 
9 | CN1CCN(c2ccc(C(=O)Nc3cc(-c4ccncc4)ccc3N)cn2)CC1 [Compound 027] | > 100 | 78.6 | 10.5 | 6190 | 839 | 3 | > 10 | 
10 | CN1CCN(c2ccc(C(=O)Nc3cc(-c4ccncc4)ccc3N)nc2)CC1 [Compound 028] | 38 |  |  |  |  |  |  | IC50 (CYP3A4): 5.9 µM
11 | CN1CCN(c2ccc3cc(C(=O)Nc4cc(-c5ccco5)ccc4N)ncc3c2)CC1 [Compound 029] | 5.2 |  |  |  |  |  |  | 
12 | CN1CCN(c2ncc(C(=O)Nc3cc(-c4cccs4)ccc3N)s2)CC1 [Compound 030] |  |  |  |  |  |  | > 10 | IV Clr. ([1]; IV 1 mg/kg, plasma): 8 mL/min/kg; PO AUC ([1]; PO 5 mg/kg, plasma): 15260 ng·h/mL; PO Cmax ([1]; PO 5 mg/kg, plasma): 944 ng/mL; PO T½ ([1]; PO 5 mg/kg, plasma): 12.8 h; F % ([1]; oral AUC to IV AUC, dose adjusted): 170%
13 | Cc1nc(N2CCNCC2)sc1C(=O)Nc1cc(-c2cccs2)ccc1N [Compound 031] | 12 |  |  |  |  |  | > 10 | 
14 | Nc1ccc(-c2ccncc2)cc1NC(=O)c1cnc(N2CCNCC2)s1 [Compound 032] | 12 | 9.7 | 17.7 | 456 | 173 | 4.3 |  | IC50 (CYP3A4): 9.5 µM
15 | Nc1ccc(-c2ccc(F)cc2)cc1NC(=O)c1ccc2nc(N3CCNCC3)ccc2c1 [Compound 035] |  | 70.5 | 2.83 | 20200 | 1870 | 4.4 |  | IC50 (HDAC1): < 0.01 µM; IC50 (HDAC2): 0.01 to 0.5 µM; IC50 (HDAC3): 0.01 to 0.5 µM
16 | Nc1ccc(-c2ccc(F)cc2)cc1NC(=O)c1ccc(N2CCNCC2)nc1 [Compound 036] |  | 69.1 | 7 | 7280 | 500 | 7.3 |  | IC50 (HDAC1): < 0.01 µM; IC50 (HDAC2): 0.01 to 0.5 µM; IC50 (HDAC3): 0.01 to 0.5 µM
17 | Nc1ccc(-c2ccc(F)cc2)cc1NC(=O)c1ccc(N2CCNCC2)cn1 [Compound 038] |  |  |  |  |  |  |  | IC50 (HDAC1): < 0.01 µM; IC50 (hERG; unit inferred): 2.5 µM; IC50 (HDAC2): 0.01 to 0.5 µM; IC50 (HDAC3): 0.01 to 0.5 µM
18 | Nc1ccc(-c2cccs2)cc1NC(=O)c1cnc(N2CCNCC2)cn1 [Compound 040] |  | 151 | 26.7 | 3340 | 211 | 16.7 |  | IC50 (HDAC1): < 0.01 µM; IC50 (HDAC2): < 0.01 µM; IC50 (HDAC3): 0.01 to 0.5 µM
